Reference: ChEMBL document CHEMBL1201862, “PubChem BioAssay data set” (2004)
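Results reflect a 48-hour exposure of cells in 96-well plates to compound at five concentrations. GI50: concentration for 50% inhibition of growth.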 Activity calls are given as the source filed them. No stated cut-off is given here; in the data, active = GI50 up to about 1.1 µM and inactive = higher.

What was measured:
Assay in all cases: inhibition of tumour cell growth, NCI panel, 48 h
786-0 = test system: 786-0
A549 = test system: A549
ACHN = test system: ACHN
CAKI-1 = test system: CAKI-1
CCRF-CEM = test system: CCRF-CEM
COLO 205 = test system: COLO 205
DLD-1 = test system: DLD-1
DMS-114 = test system: DMS-114
DMS-273 = test system: DMS-273
EKVX = test system: EKVX
HCC 2998 = test system: HCC 2998
HCT-116 = test system: HCT-116
HCT-15 = test system: HCT-15
HL-60 = test system: HL-60
HOP-18 = test system: HOP-18
HOP-62 = test system: HOP-62
HT-29 = test system: HT-29
K562 = test system: K562
KM12 = test system: KM12
LOX IMVI = test system: LOX IMVI
M14 = test system: M14
M19-MEL = test system: M19-MEL
MOLT-4 = test system: MOLT-4
Malme-3M = test system: Malme-3M
NCI-H226 = test system: NCI-H226
NCI-H23 = test system: NCI-H23
NCI-H460 = test system: NCI-H460
NCI-H522 = test system: NCI-H522
OVCAR-3 = test system: OVCAR-3
OVCAR-4 = test system: OVCAR-4
OVCAR-5 = test system: OVCAR-5
OVCAR-8 = test system: OVCAR-8
RPMI-8226 = test system: RPMI-8226
SF-268 = test system: SF-268
SF-295 = test system: SF-295
SF-539 = test system: SF-539
SK-MEL-28 = test system: SK-MEL-28
SK-MEL-2 = test system: SK-MEL-2
SK-MEL-5 = test system: SK-MEL-5
SN12C = test system: SN12C
SNB-19 = test system: SNB-19
SNB-75 = test system: SNB-75
SNB-78 = test system: SNB-78
SR = test system: SR
SW-620 = test system: SW-620
TK-10 = test system: TK-10
UACC-257 = test system: UACC-257
UO-31 = test system: UO-31
XF498 = test system: XF498
HOP-92 = test system: HOP-92
IGROV-1 = test system: IGROV-1
KM-20L2 = test system: KM-20L2
MCF7 = test system: MCF7
NCI/ADR-RES = test system: NCI/ADR-RES
RXF 393 = test system: RXF 393
SK-OV-3 = test system: SK-OV-3
U-251 = test system: U-251
UACC-62 = test system: UACC-62
A498 = test system: A498
LXFL 529 = test system: LXFL 529

Structure (SMILES): CC(=O)Nc1ccc(C(=O)N2N=C(C)/C(=C\c3c(O)ccc4ccccc34)C2=O)cc1
- GI50 (786-0): > 100 µM (inactive)
- GI50 (A549): > 100 µM (inactive)
- GI50 (ACHN): 30.6 µM (inactive)
- GI50 (CAKI-1): > 100 µM (inactive)
- GI50 (CCRF-CEM): 26.8 µM (inactive)
- GI50 (COLO 205): > 100 µM (inactive)
- GI50 (DLD-1): 30.4 µM (inactive)
- GI50 (DMS-114): 54.2 µM (inactive)
- GI50 (DMS-273): > 100 µM (inactive)
- GI50 (EKVX): > 100 µM (inactive)
- GI50 (HCC 2998): > 100 µM (inactive)
- GI50 (HCT-116): 93.5 µM (inactive)
- GI50 (HCT-15): 18.4 µM
- GI50 (HL-60): 57.4 µM (inactive)
- GI50 (HOP-18): 83 µM (inactive)
- GI50 (HOP-62): > 100 µM (inactive)
- GI50 (HT-29): > 100 µM (inactive)
- GI50 (K562): 74.8 µM (inactive)
- GI50 (KM12): > 100 µM (inactive)
- GI50 (LOX IMVI): 59.8 µM (inactive)
- GI50 (M14): 85.1 µM (inactive)
- GI50 (M19-MEL): 45.6 µM (inactive)
- GI50 (MOLT-4): 31.7 µM (inactive)
- GI50 (Malme-3M): 24 µM (inactive)
- GI50 (NCI-H226): 39.5 µM (inactive)
- GI50 (NCI-H23): > 100 µM (inactive)
- GI50 (NCI-H460): > 100 µM (inactive)
- GI50 (NCI-H522): 67 µM (inactive)
- GI50 (OVCAR-3): 91.8 µM (inactive)
- GI50 (OVCAR-4): > 100 µM (inactive)
- GI50 (OVCAR-5): > 100 µM (inactive)
- GI50 (OVCAR-8): 88.1 µM (inactive)
- GI50 (RPMI-8226): 56.8 µM (inactive)
- GI50 (SF-268): 56 µM (inactive)
- GI50 (SF-295): 40.5 µM (inactive)
- GI50 (SF-539): 56.4 µM (inactive)
- GI50 (SK-MEL-28): 57.8 µM (inactive)
- GI50 (SK-MEL-2): 29.8 µM (inactive)
- GI50 (SK-MEL-5): 35.4 µM (inactive)
- GI50 (SN12C): 48.8 µM (inactive)
- GI50 (SNB-19): > 100 µM (inactive)
- GI50 (SNB-75): > 100 µM (inactive)
- GI50 (SNB-78): > 100 µM (inactive)
- GI50 (SR): 53.3 µM (inactive)
- GI50 (SW-620): 75.2 µM (inactive)
- GI50 (TK-10): 0.1 µM (active)
- GI50 (UACC-257): > 100 µM (inactive)
- GI50 (UO-31): 39 µM (inactive)
- GI50 (XF498): 28.9 µM (inactive)

Structure (SMILES): C/C(=N\NS(=O)(=O)c1ccccc1)c1ccccc1
- GI50 (A549): > 100 µM (inactive)
- GI50 (CAKI-1): > 100 µM (inactive)
- GI50 (CCRF-CEM): > 100 µM (inactive)
- GI50 (COLO 205): > 100 µM (inactive)
- GI50 (DLD-1): > 100 µM (inactive)
- GI50 (DMS-114): > 100 µM (inactive)
- GI50 (DMS-273): > 100 µM (inactive)
- GI50 (EKVX): > 100 µM (inactive)
- GI50 (HCC 2998): > 100 µM (inactive)
- GI50 (HCT-116): > 100 µM (inactive)
- GI50 (HCT-15): > 100 µM
- GI50 (HL-60): > 100 µM (inactive)
- GI50 (HOP-18): > 100 µM (inactive)
- GI50 (HOP-62): > 100 µM (inactive)
- GI50 (HOP-92): > 100 µM (inactive)
- GI50 (HT-29): > 100 µM (inactive)
- GI50 (IGROV-1): > 100 µM (inactive)
- GI50 (K562): > 100 µM (inactive)
- GI50 (KM-20L2): > 100 µM (inactive)
- GI50 (KM12): > 100 µM (inactive)
- GI50 (LOX IMVI): > 100 µM (inactive)
- GI50 (MCF7): > 94 µM (inactive)
- GI50 (MOLT-4): > 100 µM (inactive)
- GI50 (Malme-3M): > 100 µM (inactive)
- GI50 (NCI-H226): > 80.4 µM (inactive)
- GI50 (NCI-H23): > 100 µM (inactive)
- GI50 (NCI-H460): > 100 µM (inactive)
- GI50 (NCI-H522): > 100 µM (inactive)
- GI50 (NCI/ADR-RES): > 100 µM (inactive)
- GI50 (OVCAR-3): > 100 µM (inactive)
- GI50 (OVCAR-4): > 100 µM (inactive)
- GI50 (OVCAR-5): > 100 µM (inactive)
- GI50 (OVCAR-8): > 100 µM (inactive)
- GI50 (RPMI-8226): > 100 µM (inactive)
- GI50 (RXF 393): > 100 µM (inactive)
- GI50 (SF-268): > 100 µM (inactive)
- GI50 (SF-295): > 100 µM (inactive)
- GI50 (SF-539): > 100 µM (inactive)
- GI50 (SK-MEL-28): > 100 µM (inactive)
- GI50 (SK-MEL-2): > 100 µM (inactive)
- GI50 (SK-MEL-5): > 100 µM (inactive)
- GI50 (SK-OV-3): > 100 µM (inactive)
- GI50 (SN12C): > 100 µM (inactive)
- GI50 (SNB-19): > 100 µM (inactive)
- GI50 (SNB-75): > 100 µM (inactive)
- GI50 (SNB-78): > 100 µM (inactive)
- GI50 (SW-620): > 100 µM (inactive)
- GI50 (U-251): > 100 µM (inactive)
- GI50 (UACC-257): > 100 µM (inactive)
- GI50 (UACC-62): > 100 µM (inactive)
- GI50 (UO-31): > 100 µM (inactive)
- GI50 (XF498): > 100 µM (inactive)

Structure (SMILES): COc1nc2c(nc(N)n2C2OCC(O)C(O)C2O)c(=O)n1C (centres undefined)
- GI50 (786-0): > 100 µM (inactive)
- GI50 (A498): > 100 µM (inactive)
- GI50 (A549): > 100 µM (inactive)
- GI50 (ACHN): > 100 µM (inactive)
- GI50 (CAKI-1): > 100 µM (inactive)
- GI50 (CCRF-CEM): > 100 µM (inactive)
- GI50 (COLO 205): > 100 µM (inactive)
- GI50 (DLD-1): > 100 µM (inactive)
- GI50 (DMS-114): > 100 µM (inactive)
- GI50 (EKVX): > 100 µM (inactive)
- GI50 (HCC 2998): > 100 µM (inactive)
- GI50 (HCT-116): > 100 µM (inactive)
- GI50 (HL-60): > 100 µM (inactive)
- GI50 (HOP-18): > 100 µM (inactive)
- GI50 (HOP-62): > 100 µM (inactive)
- GI50 (HOP-92): > 100 µM (inactive)
- GI50 (HT-29): > 100 µM (inactive)
- GI50 (IGROV-1): > 100 µM (inactive)
- GI50 (K562): > 100 µM (inactive)
- GI50 (KM-20L2): > 100 µM (inactive)
- GI50 (KM12): > 100 µM (inactive)
- GI50 (LOX IMVI): > 100 µM (inactive)
- GI50 (LXFL 529): > 100 µM (inactive)
- GI50 (M14): > 100 µM (inactive)
- GI50 (M19-MEL): > 100 µM (inactive)
- GI50 (MOLT-4): > 100 µM (inactive)
- GI50 (Malme-3M): > 100 µM (inactive)
- GI50 (NCI-H226): > 100 µM (inactive)
- GI50 (NCI-H23): > 100 µM (inactive)
- GI50 (NCI-H460): > 100 µM (inactive)
- GI50 (NCI-H522): > 100 µM (inactive)
- GI50 (OVCAR-3): > 100 µM (inactive)
- GI50 (OVCAR-4): > 100 µM (inactive)
- GI50 (OVCAR-8): > 100 µM (inactive)
- GI50 (RXF 393): > 100 µM (inactive)
- GI50 (SF-268): > 100 µM (inactive)
- GI50 (SF-295): > 100 µM (inactive)
- GI50 (SF-539): > 100 µM (inactive)
- GI50 (SK-MEL-28): > 100 µM (inactive)
- GI50 (SK-MEL-5): > 100 µM (inactive)
- GI50 (SK-OV-3): > 100 µM (inactive)
- GI50 (SN12C): > 100 µM (inactive)
- GI50 (SNB-19): > 100 µM (inactive)
- GI50 (SNB-75): > 100 µM (inactive)
- GI50 (SNB-78): > 100 µM (inactive)
- GI50 (SR): > 100 µM (inactive)
- GI50 (SW-620): > 100 µM (inactive)
- GI50 (TK-10): > 100 µM (inactive)
- GI50 (U-251): > 100 µM (inactive)
- GI50 (UACC-257): > 100 µM (inactive)
- GI50 (UACC-62): > 100 µM (inactive)
- GI50 (UO-31): > 100 µM (inactive)
- GI50 (XF498): 41.8 µM (inactive)
